This passage reports IC50 results from patent US10494378B2, “Fused ring pyrimidine compound, intermediate, and preparation method, composition and use thereof” (GUANGZHOU MAXINOVEL PHARMACEUTICALS CO., LTD., priority 2015, dated 2019).

Common to all, as to assay type: biochemical
The target of one experiment is T1, FGFR2 kinase (Homo sapiens, UniProt P21802).
T1 construct: purchased Carna 08-134
Nature of the experiment: IC50 evaluation assay of FGFR2 kinase inhibition (Caliper). Particulars: 28° C.; average of two tests; read-out: IC50 (nM) inhibiting FGFR 2 kinase. As for the experimental part: (§1) 1. The compound was dissolved in 100% DMSO, diluted into solutions with appropriate concentration gradients with water according to experimental requirement, and added to a 96-well plate.
2. FGFR1 kinase (Carna, Cat. No. 08-133, Lot. No. 09CBS-0989) and FGFR2 kinase (Carna, Cat. No. 08-134, Lot. No. 07CBS-2468), JAK3 kinase (Carna, Cat. No. 08-135, Lot. No. 06CBS-3177) were diluted to the optimum concentration with the following buffer solution: 50 mM HEPES, pH 7.5, 0.0015% Brij-35, 2 mM DTT. Transfer to the 96-well plate and incubate with the compound at 28° C. for a period of time.
(§2) 3. The buffer solution (100 mM HEPES, pH 7.5, 0.0015% Brij-35, 0.2% Coating Reagent and […]) was added to terminate the reaction.
(§3) 4. The conversion rate was read with Caliper Reader. The inhibition rate was calculated as the average of two tests.

Another experiment concerns the target T2, FGFR 3 (Homo sapiens, UniProt P22607).
T2 construct: purchased Carna 08-135
Nature of the experiment: IC50 evaluation assay of FGFR3 kinase inhibition (Caliper). Particulars: 28° C.; average of two tests; read-out: IC50 (nM) inhibiting FGFR 3 kinase.

In the next experiment the target is T3, c-Src kinase (Homo sapiens, UniProt P12931).
T3 construct: purchased Carna 08-173
Nature of the experiment: IC50 evaluation assay of Src family kinase inhibition: c-Src. Conditions: 28° C.; average of two tests; read-out: IC50 (nM) inhibiting Src family kinase c-Src. As for the experimental part:
as §1
(§4) 2. c-Src kinase (Carna, Cat. No. 08-173, Lot. No. 05CBS-1367), LYNαkinase (Carna, Cat. No. 08-171, Lot. No. 06CBS-3296D), FYN kinase (Carna, Cat. No. 08-068, Lot. No. 05CBS-1032), LCK kinase (Carna, Cat. No. 08-170, Lot. No. 07CBS-2482), HCK kinase (BPS, Cat. No. 40440, Lot. No. 1001), FGR kinase (Carna, Cat. No. 08-166, Lot. No. 05CBS-2781), YES kinase (Carna, Cat. No. 08-175, Lot. No. 06CBS-3247) were diluted to the optimum concentration with the following buffer solution: 50 mM HEPES, pH 7.5, 0.0015% Brij-35, 10 mM MgCl2, 2 mM DTT. Transfer to the 96-well plate and incubate with the compound at 28° C. for a period of time.
as §2, §3

Another experiment deals with T4, LCK kinase (Homo sapiens, UniProt P06239).
T4 construct: purchased Carna 08-170
The experiment in a line: IC50 evaluation assay of Src family kinase inhibition: LCK. Conditions: 28° C.; average of two tests; read-out: IC50 (nM) inhibiting Src family kinase LCK. The method, then:
as §1, §4, §2, §3

A further experiment deals with T5, FGR kinase (Homo sapiens, UniProt P09769).
T5 construct: purchased Carna 08-166
The experiment in a line: IC50 evaluation assay of Src family kinase inhibition: FGR. Particulars: 28° C.; average of two tests; read-out: IC50 (nM) inhibiting Src family kinase FGR. The method, then:
as §1, §4, §2, §3

In a further experiment the target is T6, YES kinase (Homo sapiens, UniProt P07947).
T6 construct: purchased Carna 08-175
The experiment in a line: IC50 evaluation assay of Src family kinase inhibition: YES. Particulars: 28° C.; average of two tests; read-out: IC50 (nM) inhibiting Src family kinase YES. The method, then: as §1, §4, §2, §3

For another experiment, the target named is T7, JAK1 kinase (Homo sapiens, UniProt P23458).
T7 construct: purchased Carna 08-144
The experiment in a line: IC50 evaluation assay on JAK1 kinase inhibition (Caliper). Particulars: adenosine triphosphate at Km; 1 hour at 28° C.; average of two tests; read-out: IC50 (nM) inhibiting JAK 1 kinase. As for the experimental part:
(§5) 1. The compound was dissolved in 100% DMSO, diluted into solutions with appropriate concentration gradients with water according to experimental requirement, and added to a 384-well plate.
(§6) 2. JAK2 kinase (Carna, Cat. No. 08-045, Lot. No. 07CBS-1927) and JAK3 kinase (Carna, Cat. No. 08-046, Lot. No. 08CBS-0371) were diluted to the optimum concentration with the following buffer solution: 50 mM HEPES, pH 7.5, 0.0015% Brij-35, 2 mM DTT. JAK1 kinase (Carna, Cat. No. 08-144, Lot. No. 11CBS-0144D) was diluted to the optimum concentration with the following buffer solution: 25 mM HEPES pH 7.5, 0.01% Brij-35, 2 mM DTT, 0.01M Triton. Transfer to the 384-well plate and incubated with the compound for a period of time.
(§7) 3. […] The substrate of JAK1 was diluted to the optimum concentration with the following buffer: 25 mM HEPES, pH 7.5, 0.01% Brij-35, 10 mM MgCl2, 0.01M Triton, adenosine triphosphate at Km. Add to the 384-well plate to initiate there action and react for 1 hour at 28° C.
(§8) 4. 1 Eq. of sulfuric acid solution was added to terminate the reaction, the conversion rate was read with Caliper Reader. The inhibition rate was calculated as the average of two tests.

The target in a further experiment is T8, JAK2 kinase (Homo sapiens, UniProt O60674).
T8 construct: purchased Carna 08-045
Nature of the experiment: IC50 evaluation assay on JAK2 kinase inhibition (Caliper). Conditions: adenosine triphosphate at Km; 1 hour at 28° C.; average of two tests; read-out: IC50 (nM) inhibiting JAK 2 kinase. As for the experimental part: as §5, §6, §7, §8

T5 sequence (P09769 whole entry): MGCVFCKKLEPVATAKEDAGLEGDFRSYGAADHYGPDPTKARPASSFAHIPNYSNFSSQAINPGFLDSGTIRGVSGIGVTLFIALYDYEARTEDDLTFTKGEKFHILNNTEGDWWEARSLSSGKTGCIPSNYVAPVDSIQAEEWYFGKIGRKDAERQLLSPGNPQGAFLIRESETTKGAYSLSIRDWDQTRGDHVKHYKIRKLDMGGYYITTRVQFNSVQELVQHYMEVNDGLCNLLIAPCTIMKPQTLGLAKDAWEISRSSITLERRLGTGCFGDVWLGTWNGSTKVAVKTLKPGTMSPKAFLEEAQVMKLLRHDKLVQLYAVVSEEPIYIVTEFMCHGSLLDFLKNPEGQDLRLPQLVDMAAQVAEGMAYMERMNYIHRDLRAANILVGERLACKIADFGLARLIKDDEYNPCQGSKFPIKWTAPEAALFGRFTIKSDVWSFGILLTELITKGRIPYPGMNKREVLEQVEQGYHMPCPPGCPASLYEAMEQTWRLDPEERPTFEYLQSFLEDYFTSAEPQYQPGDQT
T1 sequence (P21802 22-821): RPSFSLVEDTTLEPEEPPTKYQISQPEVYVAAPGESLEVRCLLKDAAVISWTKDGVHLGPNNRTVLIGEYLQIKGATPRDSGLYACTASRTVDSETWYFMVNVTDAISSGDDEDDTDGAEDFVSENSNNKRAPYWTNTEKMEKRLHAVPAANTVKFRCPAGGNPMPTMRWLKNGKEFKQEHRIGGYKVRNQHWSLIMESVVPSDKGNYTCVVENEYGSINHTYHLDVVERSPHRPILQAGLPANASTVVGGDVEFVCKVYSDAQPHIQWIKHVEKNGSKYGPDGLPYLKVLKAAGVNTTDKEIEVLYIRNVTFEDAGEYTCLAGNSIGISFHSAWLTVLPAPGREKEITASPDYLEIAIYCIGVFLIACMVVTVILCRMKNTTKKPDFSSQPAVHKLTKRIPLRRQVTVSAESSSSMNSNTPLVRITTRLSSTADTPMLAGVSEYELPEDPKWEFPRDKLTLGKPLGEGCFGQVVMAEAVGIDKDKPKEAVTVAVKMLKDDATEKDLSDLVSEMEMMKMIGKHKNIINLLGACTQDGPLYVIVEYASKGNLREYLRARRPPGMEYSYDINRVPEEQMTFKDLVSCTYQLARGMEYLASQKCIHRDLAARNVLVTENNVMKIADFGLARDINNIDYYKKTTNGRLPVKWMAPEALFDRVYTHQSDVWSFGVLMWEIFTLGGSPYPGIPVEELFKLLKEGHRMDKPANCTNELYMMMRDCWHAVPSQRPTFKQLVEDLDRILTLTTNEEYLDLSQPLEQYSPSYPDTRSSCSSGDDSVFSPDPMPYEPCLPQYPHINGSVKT
T2 sequence (P22607 23-806): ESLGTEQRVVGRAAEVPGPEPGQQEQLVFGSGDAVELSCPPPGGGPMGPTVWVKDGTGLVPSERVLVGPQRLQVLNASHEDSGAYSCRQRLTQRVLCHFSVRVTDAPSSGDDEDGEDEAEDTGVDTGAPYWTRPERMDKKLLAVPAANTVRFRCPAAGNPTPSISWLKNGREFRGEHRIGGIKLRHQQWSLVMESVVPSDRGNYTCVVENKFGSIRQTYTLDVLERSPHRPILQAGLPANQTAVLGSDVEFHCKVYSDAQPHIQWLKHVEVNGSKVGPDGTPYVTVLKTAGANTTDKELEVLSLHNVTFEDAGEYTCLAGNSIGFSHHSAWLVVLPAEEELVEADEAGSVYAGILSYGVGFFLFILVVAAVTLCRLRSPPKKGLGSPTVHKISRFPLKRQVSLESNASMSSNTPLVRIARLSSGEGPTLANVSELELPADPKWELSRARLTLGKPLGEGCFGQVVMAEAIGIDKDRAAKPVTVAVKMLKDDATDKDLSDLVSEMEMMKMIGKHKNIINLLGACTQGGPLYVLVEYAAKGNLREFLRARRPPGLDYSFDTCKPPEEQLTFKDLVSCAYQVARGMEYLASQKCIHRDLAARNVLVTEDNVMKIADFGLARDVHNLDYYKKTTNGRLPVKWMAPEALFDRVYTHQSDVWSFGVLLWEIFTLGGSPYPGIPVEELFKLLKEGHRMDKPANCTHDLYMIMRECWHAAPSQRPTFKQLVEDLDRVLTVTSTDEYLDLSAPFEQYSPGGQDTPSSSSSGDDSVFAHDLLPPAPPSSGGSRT
T3 sequence (P12931 whole entry): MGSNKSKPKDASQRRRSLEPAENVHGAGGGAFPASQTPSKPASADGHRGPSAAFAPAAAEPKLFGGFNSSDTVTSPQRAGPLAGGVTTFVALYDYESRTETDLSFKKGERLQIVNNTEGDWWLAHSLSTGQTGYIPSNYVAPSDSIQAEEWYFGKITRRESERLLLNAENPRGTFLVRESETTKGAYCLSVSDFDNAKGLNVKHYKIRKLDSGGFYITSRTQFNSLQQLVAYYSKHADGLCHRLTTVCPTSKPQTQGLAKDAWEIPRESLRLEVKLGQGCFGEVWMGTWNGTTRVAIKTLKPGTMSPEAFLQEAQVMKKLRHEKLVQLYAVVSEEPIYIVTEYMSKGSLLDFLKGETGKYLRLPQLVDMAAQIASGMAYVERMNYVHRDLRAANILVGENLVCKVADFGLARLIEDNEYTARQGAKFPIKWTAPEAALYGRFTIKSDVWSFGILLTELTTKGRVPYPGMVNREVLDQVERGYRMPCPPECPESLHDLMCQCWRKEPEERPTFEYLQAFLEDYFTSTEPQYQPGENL
T4 sequence (P06239 whole entry): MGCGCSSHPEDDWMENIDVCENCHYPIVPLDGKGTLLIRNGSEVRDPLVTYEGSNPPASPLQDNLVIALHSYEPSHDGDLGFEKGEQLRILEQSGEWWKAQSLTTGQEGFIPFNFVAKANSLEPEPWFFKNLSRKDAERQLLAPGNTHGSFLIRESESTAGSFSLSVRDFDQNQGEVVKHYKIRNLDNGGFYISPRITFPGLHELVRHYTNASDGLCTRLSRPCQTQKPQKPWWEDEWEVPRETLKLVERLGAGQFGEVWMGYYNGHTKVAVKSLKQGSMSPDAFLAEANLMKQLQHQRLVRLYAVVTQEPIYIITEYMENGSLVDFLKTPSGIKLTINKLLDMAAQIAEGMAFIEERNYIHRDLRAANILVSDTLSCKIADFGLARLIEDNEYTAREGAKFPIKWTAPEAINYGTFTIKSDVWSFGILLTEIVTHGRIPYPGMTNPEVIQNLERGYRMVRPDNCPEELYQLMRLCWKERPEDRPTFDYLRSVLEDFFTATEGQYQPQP
T6 sequence (P07947 whole entry): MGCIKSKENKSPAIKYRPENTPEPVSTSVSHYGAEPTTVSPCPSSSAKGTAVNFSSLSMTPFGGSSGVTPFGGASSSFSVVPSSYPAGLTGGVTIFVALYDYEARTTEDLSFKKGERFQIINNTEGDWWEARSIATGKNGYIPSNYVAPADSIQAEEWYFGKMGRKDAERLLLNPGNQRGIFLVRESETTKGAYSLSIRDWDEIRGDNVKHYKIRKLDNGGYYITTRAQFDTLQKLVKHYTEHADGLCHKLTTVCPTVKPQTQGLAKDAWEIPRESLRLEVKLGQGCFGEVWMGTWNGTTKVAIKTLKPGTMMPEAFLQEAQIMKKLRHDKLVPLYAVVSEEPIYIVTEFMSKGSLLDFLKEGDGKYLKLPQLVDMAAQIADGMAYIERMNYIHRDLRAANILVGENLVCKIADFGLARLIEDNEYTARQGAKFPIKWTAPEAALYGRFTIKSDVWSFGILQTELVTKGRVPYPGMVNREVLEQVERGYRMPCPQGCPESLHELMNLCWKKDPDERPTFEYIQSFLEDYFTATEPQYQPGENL
T8 sequence (O60674 whole entry): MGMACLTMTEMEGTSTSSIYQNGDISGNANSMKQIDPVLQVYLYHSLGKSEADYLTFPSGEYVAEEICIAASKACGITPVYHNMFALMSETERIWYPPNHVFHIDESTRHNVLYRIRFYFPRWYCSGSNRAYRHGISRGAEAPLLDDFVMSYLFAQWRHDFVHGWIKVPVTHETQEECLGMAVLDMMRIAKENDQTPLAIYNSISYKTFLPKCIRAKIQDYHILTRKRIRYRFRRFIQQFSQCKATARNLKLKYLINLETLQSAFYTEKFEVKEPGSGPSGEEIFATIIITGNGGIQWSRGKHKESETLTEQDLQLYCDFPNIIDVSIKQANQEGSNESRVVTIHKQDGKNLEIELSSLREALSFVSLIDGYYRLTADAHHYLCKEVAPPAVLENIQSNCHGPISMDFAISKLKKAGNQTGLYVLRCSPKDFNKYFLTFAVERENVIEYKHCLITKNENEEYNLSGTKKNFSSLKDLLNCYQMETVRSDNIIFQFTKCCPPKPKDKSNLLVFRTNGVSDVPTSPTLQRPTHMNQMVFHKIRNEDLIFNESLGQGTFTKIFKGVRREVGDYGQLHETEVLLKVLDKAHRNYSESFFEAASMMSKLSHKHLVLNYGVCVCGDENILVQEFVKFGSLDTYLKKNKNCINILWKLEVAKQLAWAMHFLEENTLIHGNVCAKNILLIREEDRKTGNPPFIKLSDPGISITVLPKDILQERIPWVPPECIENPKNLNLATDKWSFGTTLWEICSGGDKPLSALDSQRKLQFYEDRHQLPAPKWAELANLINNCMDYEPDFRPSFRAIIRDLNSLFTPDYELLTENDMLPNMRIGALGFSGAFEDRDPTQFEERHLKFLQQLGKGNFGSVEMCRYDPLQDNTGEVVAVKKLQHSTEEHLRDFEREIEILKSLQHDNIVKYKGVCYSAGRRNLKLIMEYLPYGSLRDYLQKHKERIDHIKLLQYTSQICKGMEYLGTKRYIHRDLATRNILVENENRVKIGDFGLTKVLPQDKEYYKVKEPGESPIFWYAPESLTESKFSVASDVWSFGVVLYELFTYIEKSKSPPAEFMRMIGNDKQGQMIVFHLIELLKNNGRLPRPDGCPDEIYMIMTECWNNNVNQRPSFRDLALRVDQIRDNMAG

Turning to `COc1cc(F)ccc1-c1c(C)sc2cnc(Nc3cnn(C4CCNCC4)c3)nc12` [Compound 31, N-[7-(4-fluoro-2-methoxyphenyl)-6-methylthieno[3,2-d]pyrimidinyl-2-yl]-1-(piperidinyl-4-yl)-1H-pyrazol-4-amine], the IC50 at FGFR2 kinase worked out at 10 nM; on FGFR 3, 16 nM; on c-Src kinase it was 6 nM; at LCK kinase it was 5.5 nM; at FGR kinase, 14 nM; at YES kinase it was 5.8 nM.

In the case of `COc1cc(F)ccc1-c1c(C)sc2cnc(Nc3cnn(C4CCN(CCO)CC4)c3)nc12` [Compound 34, 2-[4-(4-{[7-(4-fluoro-2-methoxyphenyl)-6-methylthieno[3,2-d]pyrimidinyl-2-yl]amino}-1H-pyrazol-1-yl)-piperidinyl-1-yl]-1-ethanol], the concentration for half-maximal inhibition (IC50) was 5.6 nM on JAK1 kinase; 0.71 nM at JAK2 kinase; 8.9 nM on FGFR2 kinase; 15 nM at FGFR 3; 6.3 nM at c-Src kinase; under 5 nM at LCK kinase. Besides, the figures for the concentration for half-maximal inhibition (IC50) on FGR kinase and at YES kinase were 11 nM and 6.8 nM, respectively.
